From ChEMBL document CHEMBL1201862, “PubChem BioAssay data set” (2004)
Active and inactive are the calls of the source.

Key:
[1] = test system: Streptococcus sp. 'group A'; assay: Streptococcus pyogenes SK(-)GAS viability under kanamycin – luminescence, BacTiterGlo, confirmation, counter-screen for streptokinase expression inhibitor project, dose response (AID 1900); type: functional, organism-based
[2] = target: ATP-dependent molecular chaperone HSP82 (Candida albicans (strain WO-1) (Yeast), UniProt C4YTQ8); assay: steroid-induced GRE reporter decrease in yeast – S. cerevisiae, luminescence, Hsp90 inhibitor project, dose response (AID 2400); type: functional, cell-based;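 further: beta-galactosidase luminescence from glucocorticoid response element reporter as proxy for Hsp90 function; inhibitor potency where signal loss means Hsp90 inhibition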
[3] = loss of viability in HepG2 cells – cell-based, CellTiter-Glo, cherry-picked, cytotoxicity control for Shn3 inhibitor project, dose response (AID 624134); type: functional
[4] = target: Dual specificity mitogen-activated protein kinase kinase 1 (Homo sapiens, UniProt Q02750); assay: Navigating the Kinome. Panel member name: MAP2K1; type: functional
Misshapen-like kinase 1 = Misshapen-like kinase 1 (Homo sapiens, UniProt Q8N4C8); type: functional;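 further: kinome panel screen with MINK as the panel member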
Chain of Misshapen-like kinase 1 (Q8N4C8 whole entry): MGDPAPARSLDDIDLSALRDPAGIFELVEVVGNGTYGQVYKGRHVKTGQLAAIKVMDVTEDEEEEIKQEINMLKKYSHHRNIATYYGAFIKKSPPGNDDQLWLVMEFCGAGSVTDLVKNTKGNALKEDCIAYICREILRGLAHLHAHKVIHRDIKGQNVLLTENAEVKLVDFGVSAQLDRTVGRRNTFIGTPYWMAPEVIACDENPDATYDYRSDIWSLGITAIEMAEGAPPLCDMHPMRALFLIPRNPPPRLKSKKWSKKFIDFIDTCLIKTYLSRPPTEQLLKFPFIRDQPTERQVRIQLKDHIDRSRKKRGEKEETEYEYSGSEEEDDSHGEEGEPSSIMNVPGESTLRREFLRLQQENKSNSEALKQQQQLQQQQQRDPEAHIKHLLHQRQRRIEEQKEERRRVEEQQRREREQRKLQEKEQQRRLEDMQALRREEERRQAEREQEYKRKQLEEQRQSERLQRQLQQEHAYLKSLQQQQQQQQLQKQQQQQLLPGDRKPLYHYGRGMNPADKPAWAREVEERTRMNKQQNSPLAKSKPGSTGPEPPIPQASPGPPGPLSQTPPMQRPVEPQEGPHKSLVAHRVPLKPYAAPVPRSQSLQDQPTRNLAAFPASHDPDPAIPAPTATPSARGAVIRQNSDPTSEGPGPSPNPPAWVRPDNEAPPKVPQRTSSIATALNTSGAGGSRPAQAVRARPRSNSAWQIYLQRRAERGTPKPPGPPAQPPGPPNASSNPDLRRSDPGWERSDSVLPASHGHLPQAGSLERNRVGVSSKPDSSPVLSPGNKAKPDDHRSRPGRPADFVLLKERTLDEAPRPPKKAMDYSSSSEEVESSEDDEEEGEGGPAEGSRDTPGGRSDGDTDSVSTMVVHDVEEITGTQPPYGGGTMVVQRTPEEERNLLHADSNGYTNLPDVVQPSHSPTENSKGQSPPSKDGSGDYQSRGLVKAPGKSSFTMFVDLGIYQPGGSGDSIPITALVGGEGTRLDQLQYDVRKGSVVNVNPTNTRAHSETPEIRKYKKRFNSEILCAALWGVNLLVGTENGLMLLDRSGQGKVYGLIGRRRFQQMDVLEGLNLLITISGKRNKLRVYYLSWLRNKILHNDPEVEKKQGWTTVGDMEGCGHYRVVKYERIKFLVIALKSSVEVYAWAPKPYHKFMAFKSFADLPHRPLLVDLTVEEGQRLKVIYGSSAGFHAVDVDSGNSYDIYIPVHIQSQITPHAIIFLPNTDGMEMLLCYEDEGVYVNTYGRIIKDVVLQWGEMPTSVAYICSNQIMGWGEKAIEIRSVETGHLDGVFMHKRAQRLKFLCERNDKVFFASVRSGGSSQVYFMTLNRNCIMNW

[5] = target: Tyrosine-protein kinase JAK2 (Homo sapiens, UniProt O60674); type: functional;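 further: JAK2 tested as one member of a kinase panel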
[6] = target: Vascular endothelial growth factor receptor 1 (Homo sapiens, UniProt P17948); type: functional;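 further: measured within a kinome-wide profiling panel, FLT1 as the panel member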
[7] = target: Casein kinase I isoform alpha (Homo sapiens, UniProt P48729); type: functional
[8] = target: Tyrosine-protein kinase Lck (Homo sapiens, UniProt P06239); type: functional;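 further: lck was assayed as one member of a kinase panel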
[9] = target: Dual specificity protein kinase CLK2 (Homo sapiens, UniProt P49760); type: functional
[10] = target: Cell division cycle 7-related protein kinase (Homo sapiens, UniProt O00311); type: functional;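 further: value obtained from a kinome-wide kinase panel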
Chain of Cell division cycle 7-related protein kinase (O00311 whole entry): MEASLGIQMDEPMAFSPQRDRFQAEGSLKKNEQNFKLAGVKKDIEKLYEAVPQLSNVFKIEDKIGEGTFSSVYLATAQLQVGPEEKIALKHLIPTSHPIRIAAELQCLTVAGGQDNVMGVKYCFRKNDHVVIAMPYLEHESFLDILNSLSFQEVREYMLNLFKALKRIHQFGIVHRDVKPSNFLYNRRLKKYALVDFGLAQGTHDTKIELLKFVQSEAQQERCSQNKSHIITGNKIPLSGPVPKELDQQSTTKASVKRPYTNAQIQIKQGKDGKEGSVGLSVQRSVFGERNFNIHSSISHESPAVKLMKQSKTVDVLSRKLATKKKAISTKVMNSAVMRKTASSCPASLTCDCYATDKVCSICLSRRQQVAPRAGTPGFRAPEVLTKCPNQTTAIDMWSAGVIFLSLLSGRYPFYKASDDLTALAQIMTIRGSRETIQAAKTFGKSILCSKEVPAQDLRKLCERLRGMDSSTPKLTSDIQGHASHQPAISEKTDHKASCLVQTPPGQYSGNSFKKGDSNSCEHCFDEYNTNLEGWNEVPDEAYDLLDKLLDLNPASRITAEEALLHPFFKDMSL

[11] = target: Calcium/calmodulin-dependent protein kinase type II subunit alpha (Homo sapiens, UniProt Q9UQM7); assay: Navigating the Kinome. Panel member name: CAMK2A; type: functional
[12] = target: Mitogen-activated protein kinase 14 (Homo sapiens, UniProt Q16539); type: functional;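 further: part of a kinome-wide panel, MAPK14 entry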
Chain of Mitogen-activated protein kinase 14 (Q16539 whole entry): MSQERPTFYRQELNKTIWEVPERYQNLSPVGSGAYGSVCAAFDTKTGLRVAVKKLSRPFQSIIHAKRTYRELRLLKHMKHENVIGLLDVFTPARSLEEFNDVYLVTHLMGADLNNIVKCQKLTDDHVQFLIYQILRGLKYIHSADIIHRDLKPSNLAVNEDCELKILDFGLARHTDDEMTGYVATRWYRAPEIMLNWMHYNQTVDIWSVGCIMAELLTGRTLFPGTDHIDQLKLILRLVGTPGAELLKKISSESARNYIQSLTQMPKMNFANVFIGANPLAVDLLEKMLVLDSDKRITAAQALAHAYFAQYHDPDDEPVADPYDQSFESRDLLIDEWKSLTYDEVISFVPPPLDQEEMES

[13] = target: Proto-oncogene tyrosine-protein kinase receptor Ret (Homo sapiens, UniProt P07949); type: functional;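 further: measured within a kinome-wide profiling panel, RET as the panel member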
Activated CDC42 kinase 1 = Activated CDC42 kinase 1 (Homo sapiens, UniProt Q07912); assay: Navigating the Kinome. Panel member name: ACK1; type: functional
[14] = target: 5'-AMP-activated protein kinase catalytic subunit alpha-1 (Homo sapiens, UniProt Q13131); type: functional
[15] = target: Cyclin-dependent kinase 7 (Homo sapiens, UniProt P50613); type: functional;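 further: value comes from a kinome-wide kinase profiling panel in which CDK7 is one member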
[16] = target: Macrophage colony-stimulating factor 1 receptor (Homo sapiens, UniProt P07333); type: functional;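 further: value comes from the Navigating the Kinome screening panel, CSF1R member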
Activin receptor type-1 = Activin receptor type-1 (Homo sapiens, UniProt Q04771); assay: Navigating the Kinome. Panel member name: ACVR1; type: functional
Chain of Activin receptor type-1 (Q04771 whole entry): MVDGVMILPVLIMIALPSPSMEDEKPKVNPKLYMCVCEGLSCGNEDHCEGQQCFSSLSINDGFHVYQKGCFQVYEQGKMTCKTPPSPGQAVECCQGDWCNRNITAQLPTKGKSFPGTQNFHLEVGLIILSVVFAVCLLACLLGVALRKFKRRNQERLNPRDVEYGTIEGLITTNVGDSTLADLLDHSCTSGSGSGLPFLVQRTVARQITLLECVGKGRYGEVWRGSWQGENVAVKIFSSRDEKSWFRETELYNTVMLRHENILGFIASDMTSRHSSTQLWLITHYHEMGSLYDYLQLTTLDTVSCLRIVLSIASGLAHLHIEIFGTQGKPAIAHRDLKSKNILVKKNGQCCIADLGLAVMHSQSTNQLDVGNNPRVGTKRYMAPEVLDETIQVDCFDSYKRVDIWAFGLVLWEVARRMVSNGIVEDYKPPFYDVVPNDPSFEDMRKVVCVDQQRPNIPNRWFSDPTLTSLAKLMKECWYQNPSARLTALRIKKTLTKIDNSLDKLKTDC

[17] = target: cAMP-dependent protein kinase catalytic subunit alpha (Homo sapiens, UniProt P17612); type: functional
[18] = target: High affinity nerve growth factor receptor (Homo sapiens, UniProt P04629); type: functional;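 further: NTRK1 tested as one member of a kinome-wide profiling panel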
Chain of High affinity nerve growth factor receptor (P04629 whole entry): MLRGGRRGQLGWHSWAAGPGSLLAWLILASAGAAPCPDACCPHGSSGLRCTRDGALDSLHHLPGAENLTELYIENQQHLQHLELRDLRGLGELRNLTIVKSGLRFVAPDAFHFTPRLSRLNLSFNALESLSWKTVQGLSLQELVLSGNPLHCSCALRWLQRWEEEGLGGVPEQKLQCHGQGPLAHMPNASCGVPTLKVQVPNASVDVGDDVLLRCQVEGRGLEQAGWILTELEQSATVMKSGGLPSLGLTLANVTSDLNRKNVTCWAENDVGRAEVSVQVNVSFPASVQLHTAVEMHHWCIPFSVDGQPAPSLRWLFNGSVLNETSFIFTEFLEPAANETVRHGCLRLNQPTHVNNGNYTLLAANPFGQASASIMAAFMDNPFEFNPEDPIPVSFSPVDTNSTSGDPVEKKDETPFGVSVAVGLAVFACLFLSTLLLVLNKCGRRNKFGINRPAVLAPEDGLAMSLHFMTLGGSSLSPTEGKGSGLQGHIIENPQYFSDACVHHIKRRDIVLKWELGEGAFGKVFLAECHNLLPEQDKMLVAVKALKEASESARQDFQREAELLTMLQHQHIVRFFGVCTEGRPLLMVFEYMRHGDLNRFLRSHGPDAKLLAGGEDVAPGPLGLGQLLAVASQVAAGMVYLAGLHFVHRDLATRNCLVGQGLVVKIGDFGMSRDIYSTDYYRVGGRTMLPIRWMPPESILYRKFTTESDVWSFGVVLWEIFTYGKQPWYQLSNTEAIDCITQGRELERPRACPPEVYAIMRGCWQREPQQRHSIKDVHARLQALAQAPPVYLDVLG

[19] = target: Mitogen-activated protein kinase kinase kinase kinase 5 (Homo sapiens, UniProt Q9Y4K4); type: functional;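 further: measured as one member of a kinome-spanning kinase panel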
[20] = target: cAMP-dependent protein kinase catalytic subunit PRKX (Homo sapiens, UniProt P51817); type: functional
Chain of cAMP-dependent protein kinase catalytic subunit PRKX (P51817 whole entry): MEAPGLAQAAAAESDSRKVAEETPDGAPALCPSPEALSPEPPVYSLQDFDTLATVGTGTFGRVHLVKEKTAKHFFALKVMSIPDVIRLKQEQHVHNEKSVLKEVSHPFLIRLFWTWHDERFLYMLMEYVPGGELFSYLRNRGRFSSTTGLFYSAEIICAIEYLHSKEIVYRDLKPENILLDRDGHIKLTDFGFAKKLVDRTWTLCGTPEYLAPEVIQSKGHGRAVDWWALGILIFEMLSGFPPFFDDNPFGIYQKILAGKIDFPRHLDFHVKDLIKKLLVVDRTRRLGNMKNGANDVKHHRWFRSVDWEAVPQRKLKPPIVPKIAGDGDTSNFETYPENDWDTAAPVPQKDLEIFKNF

[21] = target: Mitogen-activated protein kinase 9 (Homo sapiens, UniProt P45984); type: functional;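 further: value from a kinome panel profiling assay, MAPK9 panel entry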
[22] = target: Dual specificity tyrosine-phosphorylation-regulated kinase 1A (Homo sapiens, UniProt Q13627); type: functional;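 further: measured against DYRK1A as one member of a broad kinome profiling panel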
[23] = target: Homeodomain-interacting protein kinase 2 (Homo sapiens, UniProt Q9H2X6); type: functional;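 further: measured within a kinome-wide kinase profiling panel, HIPK2 being one panel member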
[24] = target: Macrophage-stimulating protein receptor (Homo sapiens, UniProt Q04912); assay: Navigating the Kinome. Panel member name: MST1R; type: functional
[25] = target: Protein kinase C theta type (Homo sapiens, UniProt Q04759); assay: Navigating the Kinome. Panel member name: PRKCQ; type: functional
[26] = target: Platelet-derived growth factor receptor alpha (Homo sapiens, UniProt P16234); assay: Navigating the Kinome. Panel member name: PDGFRA; type: functional
Chain of Platelet-derived growth factor receptor alpha (P16234 whole entry): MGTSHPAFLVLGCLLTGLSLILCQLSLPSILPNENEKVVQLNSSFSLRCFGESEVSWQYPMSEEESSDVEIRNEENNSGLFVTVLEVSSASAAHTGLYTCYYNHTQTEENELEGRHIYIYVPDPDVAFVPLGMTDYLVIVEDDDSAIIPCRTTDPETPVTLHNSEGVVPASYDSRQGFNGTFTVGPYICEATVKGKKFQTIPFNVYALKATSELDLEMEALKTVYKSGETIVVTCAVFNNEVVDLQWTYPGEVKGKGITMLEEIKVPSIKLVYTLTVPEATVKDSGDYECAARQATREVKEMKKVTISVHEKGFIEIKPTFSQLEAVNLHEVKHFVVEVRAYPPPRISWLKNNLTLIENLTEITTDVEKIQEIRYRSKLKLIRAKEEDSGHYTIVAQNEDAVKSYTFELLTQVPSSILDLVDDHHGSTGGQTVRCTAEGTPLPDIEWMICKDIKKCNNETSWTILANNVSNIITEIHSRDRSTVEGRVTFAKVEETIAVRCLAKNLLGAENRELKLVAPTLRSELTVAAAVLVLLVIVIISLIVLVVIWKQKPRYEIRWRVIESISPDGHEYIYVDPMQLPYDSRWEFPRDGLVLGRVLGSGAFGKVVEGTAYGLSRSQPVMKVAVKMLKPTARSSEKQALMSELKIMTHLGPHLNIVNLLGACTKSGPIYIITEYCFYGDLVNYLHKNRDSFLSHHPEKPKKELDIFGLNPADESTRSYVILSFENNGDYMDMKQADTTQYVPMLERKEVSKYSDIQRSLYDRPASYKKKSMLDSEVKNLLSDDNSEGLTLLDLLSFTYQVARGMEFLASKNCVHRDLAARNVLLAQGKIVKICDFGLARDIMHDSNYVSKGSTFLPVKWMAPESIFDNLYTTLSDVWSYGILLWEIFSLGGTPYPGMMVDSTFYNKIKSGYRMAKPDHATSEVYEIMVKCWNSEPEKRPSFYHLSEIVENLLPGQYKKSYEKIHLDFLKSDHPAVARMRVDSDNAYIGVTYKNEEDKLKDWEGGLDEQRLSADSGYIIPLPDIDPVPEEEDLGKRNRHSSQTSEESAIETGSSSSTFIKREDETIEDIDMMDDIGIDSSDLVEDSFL

[27] = target: Inhibitor of nuclear factor kappa-B kinase subunit epsilon (Homo sapiens, UniProt Q14164); assay: Navigating the Kinome. Panel member name: IKBKE; type: functional
Aurora kinase B = Aurora kinase B (Homo sapiens, UniProt Q96GD4); type: functional
[28] = target: Mitogen-activated protein kinase kinase kinase kinase 4 (Homo sapiens, UniProt O95819); type: functional
[29] = target: Serine/threonine-protein kinase PLK1 (Homo sapiens, UniProt P53350); type: functional;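 further: PLK1 measured as one member of a kinome-wide profiling panel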
[30] = target: Protein-tyrosine kinase 6 (Homo sapiens, UniProt Q13882); type: functional
[31] = target: MAP kinase-interacting serine/threonine-protein kinase 2 (Homo sapiens, UniProt Q9HBH9); type: functional
[32] = target: Testis-specific serine/threonine-protein kinase 2 (Homo sapiens, UniProt Q96PF2); type: functional;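 further: part of the Navigating the Kinome panel, target entry STK22B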
[33] = target: Fibroblast growth factor receptor 3 (Homo sapiens, UniProt P22607); type: functional
[34] = target: Protein kinase C delta type (Homo sapiens, UniProt Q05655); type: functional
[35] = target: Mitogen-activated protein kinase 13 (Homo sapiens, UniProt O15264); type: functional
[36] = target: Serine/threonine-protein kinase BRSK1 (Homo sapiens, UniProt Q8TDC3); type: functional;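 further: measured within a kinome-wide kinase panel, with the target listed as KIAA1811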
[37] = target: Cyclin-dependent kinase 19 (Homo sapiens, UniProt Q9BWU1); assay: Navigating the Kinome. Panel member name: CDC2L6; type: functional

| SMILES | Ki [4] | Ki (Misshapen-like kinase 1) | Ki [5] | Ki [6] | Ki [7] | Ki [8] | Ki [9] | Ki [10] | Ki [11] | Ki [12] | Ki [13] | Ki (Activated CDC42 kinase 1) | Ki [14] | Ki [15] | Ki [16] | Ki (Activin receptor type-1) | Ki [17] | Ki [18] | Ki [19] | Ki [20] | other results |
| --- | --- | --- | --- | --- | --- | --- | --- | --- | --- | --- | --- | --- | --- | --- | --- | --- | --- | --- | --- | --- | --- |
| Cc1cc(NC(c2ccc(Cl)cc2)c2ccc3cccnc3c2O)no1 (stereo not given) |  |  |  |  |  |  |  |  |  |  |  |  |  |  |  |  |  |  |  |  | EC50 [1]: 0.416 µM (active); EC50 [2]: 20.7 µM (active); AC50 [3]: 1.27 µM (active) |
| O=C(Nc1n[nH]c2ccc(-c3cn(Cc4ccccc4)nn3)cc12)c1cc(F)ccc1F | > 3.16 µM (inactive) | > 2.51 µM (inactive) | > 2.51 µM (inactive) | > 3.98 µM (inactive) | 1.58 µM (active) | > 6.31 µM (inactive) | 0.126 µM (active) | 0.00316 µM (active) | > 3.98 µM (inactive) | > 3.98 µM (inactive) | 2 µM (active) | > 3.98 µM (inactive) | 0.398 µM (active) | 0.2 µM (active) | > 2.51 µM (inactive) | 3.98 µM (active) | > 2.51 µM (inactive) | > 3.16 µM (inactive) | 0.794 µM (active) | 0.316 µM (active) | Ki [21]: 1 µM (active); Ki [22]: 0.0501 µM (active); Ki [23]: 0.1 µM (active); Ki [24]: 2.51 µM (active); Ki [25]: 1.58 µM (active); Ki [26]: > 2.51 µM (inactive); Ki [27]: 1.26 µM (active); Ki (Aurora kinase B): > 3.98 µM (inactive); Ki [28]: 2 µM (active) |
| CS(=O)(=O)Nc1ccc(Nc2ccc3[nH]nc(N)c3c2)cc1 |  |  |  |  |  | > 6.31 µM (inactive) |  |  |  |  |  |  |  |  |  |  |  |  |  |  | Ki [28]: > 5.01 µM (inactive) |
| CS(=O)(=O)N(Cc1ccc2[nH]c(=O)c3cccn3c2c1)C1CC1 | > 3.16 µM (inactive) | > 7.94 µM (inactive) | > 1.58 µM (inactive) | > 2 µM (inactive) | > 5.01 µM (inactive) |  | > 6.31 µM (inactive) | 0.1 µM (active) | > 3.98 µM (inactive) | > 3.98 µM (inactive) | > 1.58 µM (inactive) | > 3.98 µM (inactive) | > 1.58 µM (inactive) | > 3.98 µM (inactive) | > 1.58 µM (inactive) | > 3.98 µM (inactive) | > 3.98 µM (inactive) | > 1.58 µM (inactive) | 1.58 µM (active) | > 1.58 µM (inactive) | Ki [29]: 0.01 µM (active); Ki [30]: 2 µM (active); Ki [31]: 0.794 µM (active); Ki [32]: 0.0398 µM (active); Ki [33]: > 2 µM (inactive); Ki [34]: > 7.94 µM (inactive); Ki [35]: 0.251 µM (active); Ki [36]: 0.2 µM (active); Ki [21]: > 3.98 µM (inactive); Ki [22]: > 3.98 µM (inactive); Ki [23]: 0.0631 µM (active); Ki [37]: > 100 µM (inactive); Ki [24]: > 3.98 µM (inactive); Ki [25]: > 2.51 µM (inactive); Ki [26]: > 2.51 µM (inactive); Ki [27]: > 3.16 µM (inactive); Ki (Aurora kinase B): > 1.26 µM (inactive) |
